# In patent US20200261520A1, “Combination Therapies of Hepatitis B Virus (HBV)-infected individuals using Parapoxvirus Ovis (PPVO) and at Least one Further Antiviral Drug” (priority 2017, published 2020):
# Key:
# [1] = Safety assessment (mortality, observations, body weight, temperature, hematology, clinical chemistry, necropsy, histopathology); assay type: in vivo, woodchuck; conditions: n=5/group at start of experiment; week of death
# Experimental: Treatment-induced changes in viremia, antigenemia, immunological parameters, as well as the induction of WHsAg antibody seroconversion were evaluated for determination of antiviral effects. Daily observations, changes in body weight and body temperatures, changes in hematology and clinical chemistry, as well as necropsy and histopathology were assessed for determination of safety.
# The efficacy of AIC649 monotherapy, ETV monotherapy, or combination AIC649+ETV therapy was compared to a placebo control group (N=5 animals/group). […] Daily observations, changes in body weight and body temperatures, changes in hematology and clinical chemistry, as well as necropsy and histopathology were assessed for determination of safety. […]
# Mortality was assessed daily for all animals.
# Body temperature and weight assessments were performed together, weekly. The animal identification number and body temperature were read from a microchip implanted in the dorsal base of the tail using a hand-held chip reader (Biomedical Data Systems Inc.). […]
# Uncoagulated whole blood was collected in EDTA tubes. […] Samples were analyzed the following day using an automated cell counter system (coulter) with program settings for woodchucks (Bellezza, C. A., et al., 2002, Elsevier. p. 309-328). […]
# [2] = tested on: woodchuck hepatitis virus (WHV); assay: T-cell proliferative responses of PBMCs to WHV peptides (CellTiter-Glo, stimulation index); assay type: in vivo; conditions: chronic WHV carrier woodchucks; fold change from baseline at T0
# Experimental: In woodchucks, over a 36-week period, AIC649 was administered i.v. and then i.m., alone or in combination with an initial 12 weeks of the direct acting antiviral, ETV, given orally.
# The efficacy of AIC649 monotherapy, ETV monotherapy, or combination AIC649+ETV therapy was compared to a placebo control group (N=5 animals/group). […] Daily observations, changes in body weight and body temperatures, changes in hematology and clinical chemistry, as well as necropsy and histopathology were assessed for determination of safety.
# PBMCs were isolated from whole blood and cultured for 5 days in the presence of DMSO (negative control), lipopolysaccharide (LPS, positive control), recombinant human IL-2 (positive control), or pools of peptides covering the entire WHcAg, WHsAg, or WHxAg, respectively. Using the CellTiter-Glo® assay, the number of viable cells in each test well was assessed using a luminescent signal proportional to the amount of ATP present, and thus to the number of viable cells. Cultures were assessed after 5 days and a stimulation index (SI) was derived relative to the negative controls as a measure of T-cell responses to specific antigens/stimuli:
# SI=Test luminescence/negative control luminescence
structure (smiles),measurement,setting,value
"C=C1[C@H](CO)[C@@H](O)C[C@@H]1n1cnc2c(=O)[nH]c(N)nc21 [ETV, Entecavir]",deaths in group,[1],"1 animal each at week 4, 14, 21, 29"
same,cell mediated immune responses (PBMCs stimulated with WHsAg peptides),[2],not
